Assay results taken from PubChem BioAssay (NCI).
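Compound exposure: 48 hours, 5 concentrations, 96-well plates. Definition used: TGI = concentration required for complete inhibition of growth.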

Key:
Test in all cases: DTP human tumour cell line panel, 48 h
DMS 114 small cell lung = test system: DMS 114 small cell lung
EKVX NSCLC = test system: EKVX NSCLC
TK-10 renal = test system: TK-10 renal
SK-OV-3 ovarian = test system: SK-OV-3 ovarian
UACC-62 melanoma = test system: UACC-62 melanoma
SK-MEL-5 melanoma = test system: SK-MEL-5 melanoma
KM20L2 colon = test system: KM20L2 colon
HL-60(TB) leukemia = test system: HL-60(TB) leukemia
HOP-18 NSCLC = test system: HOP-18 NSCLC
XF 498 CNS = test system: XF 498 CNS
A498 renal = test system: A498 renal
MDA-MB-435 = test system: MDA-MB-435

Structure (SMILES) | TGI (DMS 114 small cell lung) [µM] | TGI (EKVX NSCLC) [µM] | TGI (TK-10 renal) [µM] | TGI (SK-OV-3 ovarian) [µM] | TGI (UACC-62 melanoma) [µM] | TGI (SK-MEL-5 melanoma) [µM] | TGI (KM20L2 colon) [µM] | TGI (HL-60(TB) leukemia) [µM] | TGI (HOP-18 NSCLC) [µM] | TGI (XF 498 CNS) [µM] | TGI (A498 renal) [µM] | TGI (MDA-MB-435) [µM]
O=C(O)OC12CCCCCC1C(=O)C1CCCCC12 (configuration not stated) | > 100 | > 100 | > 100 | > 100 | > 100 | > 100 | > 100 | > 100 | > 100 | > 100 | – | –
CSC(SC)=C1Sc2cccc(Cl)c2S1 | 79.8 | > 100 | > 100 | > 100 | > 100 | > 100 | > 100 | 45.9 | > 100 | 76.9 | > 100 | –
Nc1cc2c(C3OC(CO)C(O)C3O)[nH]nc2c(=S)[nH]1 (configuration not stated) | > 100 | > 100 | – | > 100 | > 100 | > 100 | > 100 | > 100 | – | > 100 | > 100 | –
CCCCc1c2c([n+]([O-])c3c1CCCC3)CCCC2 | > 100 | > 100 | > 100 | > 100 | – | > 100 | > 100 | > 100 | – | > 100 | – | –
COc1cc(Nc2nc(NS(=O)(=O)c3cc(C)c(Cl)cc3S)n[nH]2)cc(OC)c1OC | – | > 100 | > 100 | > 100 | > 100 | > 100 | – | > 100 | – | – | > 100 | > 100
Cc1[nH]n(C(=O)Cc2ccccc2)c(=O)c1/C=C1\C(=O)C=Cc2ccccc21 | > 100 | > 100 | > 100 | – | – | > 100 | – | > 100 | 84.6 | – | – | –
COC(=O)c1nc2n(n1)-c1ccccc1C(=O)N(Cc1ccccc1)C2 | – | > 100 | > 100 | > 100 | > 100 | > 100 | – | > 100 | – | – | > 100 | > 100
C[C@H]1CC(=O)C[C@@H]2CC[C@@H]3[C@H](CC[C@]4(C)C(OC(=O)c5cccc6c(=O)c7ccccc7[nH]c56)CC[C@@H]34)[C@]21C (some centres not stated) | – | > 100 | > 100 | > 100 | 88.3 | 40.3 | – | 36.5 | – | – | > 100 | > 100
O=C(NNC(=O)c1cc2ccccc2[nH]1)c1cc2ccccc2[nH]1 | – | > 100 | > 100 | > 100 | > 100 | > 100 | – | > 100 | – | – | > 100 | > 100
O=C1OCC2=C1C(c1ccc(Cl)cc1)c1cc3c(cc1O2)OCO3 (configuration not stated) | – | > 100 | > 100 | > 100 | > 100 | > 100 | – | 12.8 | – | – | > 100 | 5.31
CCCCCCCCCCCCOC(=N)N1CCOCC1 | 19.7 | 26.4 | 31.6 | 34.1 | 24.7 | 23.4 | 13.4 | 3.26 | 16.3 | 29.7 | > 52.3 | –
CC1=C(C(N)=O)C(c2ccncc2)C(C#N)C(=O)N1 (configuration not stated) | – | > 100 | > 100 | > 100 | > 100 | > 100 | – | > 100 | – | – | > 100 | > 100
CN(C)CCC(C#N)(c1ccccc1)c1ccccc1 | – | > 100 | > 100 | > 100 | > 100 | 51.1 | – | 65.3 | – | – | > 100 | > 100
CSc1cnc2ccccc2c1Sc1cn(C)c2ccccc2c1=O | 67.7 | > 100 | > 100 | 44.5 | > 100 | > 100 | > 100 | > 100 | > 100 | 70.8 | > 100 | –
